# System: sodium monoiodoacetate-induced model rats
# Assay: Analgesic effect on sodium monoiodoacetate-induced model rats
# Format: in vivo, rat
# Conditions: MIA-induced model rats; day 24; 3 mg/kg subcutaneously 1 hour before the measurement; positive control drug
row,SMILES,Percent improvement (%)
1,"CN1CC[C@]23c4c5ccc(O)c4O[C@H]2[C@@H](O)C=C[C@H]3[C@H]1C5 [Morphine, morphine, reference compound]",54

# Same assay, conditions: MIA-induced model rats; day 24; 10 mg/kg subcutaneously 1 hour before the measurement; positive control drug
row,SMILES,Percent improvement (%)
1,"COc1cccc(C2(O)CCCCC2CN(C)C)c1 (centres unmarked) [Tramadol, tramadol, reference compound]",43

# Same assay, conditions: MIA-induced model rats; right hind limb weight load ratio, day 24; test substance orally twice a day from day 14; experiment with morphine as positive control (Table 8)
row,SMILES,Percent improvement (%)
1,"Nc1ncc(C(F)(F)F)cc1-c1ccc(Oc2ncc(NC(=O)Nc3cc(C(F)(F)F)ccc3-n3cc(Cl)cn3)cn2)cc1 [Example 15-87, 1-(2-{4-[2-amino-5-(trifluoromethyl)-3-pyridinyl]phenoxy}-5-pyrimidinyl)-3-[2-(4-chloro-1H-pyrazol-1-yl)-5-(trifluoromethyl)phenyl]urea]",57
2,"CN(C)c1ccn2ncc(-c3ccc(Oc4ncc(NC(=O)Nc5cc(C(F)(F)F)ccc5-c5cccnc5)cn4)cc3)c2n1 [Example 21-37, 1-(2-{4-[5-(dimethylamino)pyrazolo[1,5-a]pyrimidin-3-yl]phenoxy}-5-pyrimidinyl)-3-[2-(3-pyridinyl)-5-(trifluoromethyl)phenyl]urea]",67
3,"Nc1ncc(Cl)cc1-c1ccc(Oc2ncc(NC(=O)Nc3ccc(C(F)(F)F)cc3C(F)(F)F)cn2)cc1 [Example 15-77, 1-{2-[4-(2-amino-5-chloro-3-pyridinyl)phenoxy]-5-pyrimidinyl}-3-[2,4-bis(trifluoromethyl)phenyl]urea]",55
4,"CN(C)c1ccn2ncc(-c3ccc(Oc4ncc(NC(=O)Nc5cc(C(F)(F)F)ccc5-c5ccccc5)cn4)cc3)c2n1 [Example 21-70, 1-(2-{4-[5-(dimethylamino)pyrazolo[1,5-a]pyrimidin-3-yl]phenoxy}-5-pyrimidinyl)-3-[4-(trifluoromethyl)-2-biphenylyl]urea]",61
5,"Nc1ncc(C(F)(F)F)cc1-c1ccc(Oc2ncc(NC(=O)Nc3cc(C(F)(F)F)ccc3-n3ccc(C(F)(F)F)n3)cn2)cc1 [Example 15-52, 1-(2-{4-[2-amino-5-(trifluoromethyl)-3-pyridinyl]phenoxy}-5-pyrimidinyl)-3-{5-(trifluoromethyl)-2-[3-(trifluoromethyl)-1H-pyrazol-1-yl]phenyl}urea]",60
6,"CN(C)c1ccn2ncc(-c3ccc(Oc4ncc(NC(=O)Nc5cc(C(F)(F)F)ccc5-c5ccnn5C)cn4)cc3)c2n1 [Example 21-51, 1-(2-{4-[5-(dimethylamino)pyrazolo[1,5-a]pyrimidin-3-yl]phenoxy}-5-pyrimidinyl)-3-[2-(1-methyl-1H-pyrazol-5-yl)-5-(trifluoromethyl)phenyl]urea]",68
7,"Nc1ncc(Cl)cc1-c1ccc(Oc2ncc(NC(=O)Nc3cc(C(F)(F)F)ccc3-c3ccccc3)cn2)cc1 [Example 15-55, 1-{2-[4-(2-amino-5-chloro-3-pyridinyl)phenoxy]-5-pyrimidinyl}-3-[4-(trifluoromethyl)-2-biphenylyl]urea]",62
8,"Nc1ncc(F)cc1-c1ccc(Oc2ncc(NC(=O)Nc3cc(C(F)(F)F)ccc3-c3cccnc3)cn2)cc1 [Example 14-6, 1-(2-(4-(2-amino-5-fluoropyridin-3-yl)phenoxy)pyrimidin-5-yl)-3-(2-(pyridin-3-yl)-5-(trifluoromethyl)phenyl)urea]",53
9,"CS(=O)(=O)c1ccc(C(F)(F)F)cc1NC(=O)Nc1cnc(Oc2ccc(-c3cc(Cl)cnc3N)cc2)nc1 [Example 15-104, 1-{2-[4-(2-amino-5-chloro-3-pyridinyl)phenoxy]-5-pyrimidinyl}-3-[2-(methylsulfonyl)-5-(trifluoromethyl)phenyl]urea]",54
10,"Nc1ncc(Cl)cc1-c1ccc(Oc2ncc(NC(=O)Nc3cc(C(F)(F)F)ccc3-n3cc(Cl)cn3)cn2)cc1 [Example 15-63, 1-{2-[4-(2-amino-5-chloro-3-pyridinyl)phenoxy]-5-pyrimidinyl}-3-[2-(4-chloro-1H-pyrazol-1-yl)-5-(trifluoromethyl)phenyl]urea]",53
11,"CS(=O)(=O)c1ccc(C(F)(F)F)cc1NC(=O)Nc1cnc(Oc2ccc(-c3cc(C(F)(F)F)cnc3N)cc2)nc1 [Example 15-98, 1-(2-{4-[2-amino-5-(trifluoromethyl)-3-pyridinyl]phenoxy}-5-pyrimidinyl)-3-[2-(methylsulfonyl)-5-(trifluoromethyl)phenyl]urea]",57
12,"Cc1cccc(-c2ccc(C(F)(F)F)cc2NC(=O)Nc2cnc(Oc3ccc(-c4cnn5ccc(N(C)C)nc45)cc3)nc2)c1 [Example 21-73, 1-(2-{4-[5-(dimethylamino)pyrazolo[1,5-a]pyrimidin-3-yl]phenoxy}-5-pyrimidinyl)-3-[3′-methyl-4-(trifluoromethyl)-2-biphenylyl]urea]",62

# Same assay, conditions: MIA-induced model rats; right hind limb weight load ratio, day 24; test substance orally twice a day from day 14; experiment with tramadol as positive control (Table 7)
row,SMILES,Percent improvement (%)
1,"Nc1ncc(Cl)cc1-c1ccc(Oc2ncc(NC(=O)Nc3ccc(C(F)(F)F)cc3Cl)cn2)cc1 [Example 15-6, 1-(2-(4-(2-amino-5-chloropyridin-3-yl)phenoxy)pyrimidin-5-yl)-3-(2-chloro-4-(trifluoromethyl)phenyl)urea]",51
2,"Nc1ncc(Cl)cc1-c1ccc(Oc2ncc(NC(=O)Nc3cc(C(F)(F)F)ccc3-n3cccn3)cn2)cc1 [Example 7, 1-(2-(1H-pyrazol-1-yl)-5-(trifluoromethyl)phenyl)-3-(2-(4-(2-amino-5-chloropyridin-3-yl)phenoxy)pyrimidin-5-yl) urea]",61
3,"Nc1ncc(F)cc1-c1ccc(Oc2ncc(NC(=O)Nc3cc(C(F)(F)F)ccc3-n3ccnn3)cn2)cc1 [Example 14-5, 1-(2-(1H-1,2,3-triazol-1-yl)-5-(trifluoromethyl)phenyl)-3-(2-(4-(2-amino-5-fluoropyridin-3-yl)phenoxy)pyrimidin-5-yl)urea]",47
4,"Cc1cn(-c2ccc(C(F)(F)F)cc2NC(=O)Nc2cnc(Oc3ccc(-c4cc(Cl)cnc4N)cc3)nc2)nn1 [Example 8-1, 1-(2-(4-(2-amino-5-chloropyridin-3-yl)phenoxy)pyrimidin-5-yl)-3-(2-(4-methyl-1H-1,2,3-triazol-1-yl)-5-(trifluoromethyl)phenyl)urea]",60
5,"O=C(Nc1cnc(Oc2ccc(-c3cnn4cccnc34)cc2)nc1)Nc1cc(C(F)(F)F)ccc1-c1cccnc1 [Example 21-13, l-(2-(4-(pyrazolo[1,5-a]pyrimidin-3-yl)phenoxy)pyrimidin-5-yl)-3-(2-(pyridin-3-yl)-5-(trifluoromethyl)phenyl)urea]",66
6,"COc1ccn2ncc(-c3ccc(Oc4ncc(NC(=O)Nc5cc(C(F)(F)F)ccc5-c5cccnc5)cn4)cc3)c2n1 [Example 21-9, 1-(2-(4-(5-methoxypyrazolo[1,5-a]pyrimidin-3-yl)phenoxy)pyrimidin-5-yl)-3-(2-(pyridin-3-yl)-5-(trifluoromethyl)phenyl)urea]",64
